The target in one data set is VEGA-NRP1 (Homo sapiens, UniProt O14786). The data set can be described thus: Inhibition of human biotinylated-VEGFA165 binding to recombinant human NRP-1 measured after 2 hrs by chemiluminescent based ELISA. Format: protein assay. Conditions: read-out: IC50.
Another data set has as its target VEGA-NRP1 (Homo sapiens) (UniProt P15692+O14786). The data set can be described thus: Inhibition of biotinylated-VEGFA165 (unknown origin) binding to C-terminal 6-His tagged human NRP-1 (Phe22 to Lys644 residues) expressed in mouse NS0 cells at 100 uM measured after 2 hrs by chemiluminescence assay relative to control. Format: cell-based.
The nature of data set [1]: Half-life in human serum by LC-SWATH-MS analysis. The class given is ADME, cell-free.
For data set [2], the system named is MDA-MB-231. The data set can be described thus: Increase in NRP-1 expression in human MDA-MB-231 cell membrane at 59 uM preincubated for 15 mins at 4 degC followed by compound washout and further incubated for 5 mins with subsequent addition of compound at 37 degC by FITC-streptavidin staining based flow cytometry analysis. The class given is functional. Conditions: time 20.0 min.

Data set [3] concerns Cell membrane. The data set can be described thus: Binding affinity to human MDA-MB-231 cell membrane at 59 uM preincubated for 15 mins at 4 degC followed by compound washout and further incubated for 5 mins with subsequent addition of compound at 37 degC by Alexa Fluor 594-streptavidin staining based fluorescence microscopy. As to conditions: time 20.0 min. The class given is subcellular.

Data set [4] relates to MDA-MB-231. The data set can be described thus: Increase in NRP-1 expression in human MDA-MB-231 cell membrane at 59 uM preincubated for 15 mins at 4 degC followed by compound washout and further incubated for 60 mins with subsequent addition of compound at 37 degC by FITC-streptavidin staining based flow cytometry analysis. As to conditions: time 75.0 min. Format: functional.

Data set [5] concerns the target Neuropilin-1 (Homo sapiens) (UniProt O14786). The data set can be described thus: Binding affinity to NRP-1 in human MDA-MB-435 cells at 12.5 to 100 ug/ml measured after 15 mins by FITC-streptavidin staining based flow cytometry analysis. As to conditions: dose 12.5-100 µg/ml. Format: cell-based.
Data set [6] has as its system Cell membrane. The data set can be described thus: Binding affinity to human MDA-MB-231 cell membrane at 59 uM measured after 15 mins at 4 degC by Alexa Fluor 594-streptavidin staining based fluorescence microscopy. Format: subcellular.
The subject of data set [7] is MDA-MB-231. The data set can be described thus: Increase in NRP-1 expression in human MDA-MB-231 cell membrane at 5.9 uM preincubated for 15 mins at 4 degC followed by compound washout and further incubated for 60 mins with subsequent addition of compound at 37 degC by FITC-streptavidin staining based flow cytometry analysis. The class given is functional. Conditions: time 75.0 min.

For data set [8], the system named is Cell membrane. The data set can be described thus: Binding affinity to human MDA-MB-231 cell membrane at 59 uM preincubated for 15 mins at 4 degC followed by compound washout and further incubated for 5 mins with subsequent addition of compound at 37 degC by FITC-streptavidin staining based flow cytometry analysis. As to conditions: time 20.0 min. Format: subcellular.

The target of data set [9] is Neuropilin-1 (Homo sapiens) (UniProt O14786). The data set can be described thus: Binding affinity to NRP-1 in human MDA-MB-231 cells at 12.5 to 100 ug/ml measured after 15 mins by FITC-streptavidin staining based flow cytometry analysis. The class given is cell-based. Conditions: dose 12.5-100 µg/ml.
Neuropilin-1 (Homo sapiens), sequence (O14786 whole entry): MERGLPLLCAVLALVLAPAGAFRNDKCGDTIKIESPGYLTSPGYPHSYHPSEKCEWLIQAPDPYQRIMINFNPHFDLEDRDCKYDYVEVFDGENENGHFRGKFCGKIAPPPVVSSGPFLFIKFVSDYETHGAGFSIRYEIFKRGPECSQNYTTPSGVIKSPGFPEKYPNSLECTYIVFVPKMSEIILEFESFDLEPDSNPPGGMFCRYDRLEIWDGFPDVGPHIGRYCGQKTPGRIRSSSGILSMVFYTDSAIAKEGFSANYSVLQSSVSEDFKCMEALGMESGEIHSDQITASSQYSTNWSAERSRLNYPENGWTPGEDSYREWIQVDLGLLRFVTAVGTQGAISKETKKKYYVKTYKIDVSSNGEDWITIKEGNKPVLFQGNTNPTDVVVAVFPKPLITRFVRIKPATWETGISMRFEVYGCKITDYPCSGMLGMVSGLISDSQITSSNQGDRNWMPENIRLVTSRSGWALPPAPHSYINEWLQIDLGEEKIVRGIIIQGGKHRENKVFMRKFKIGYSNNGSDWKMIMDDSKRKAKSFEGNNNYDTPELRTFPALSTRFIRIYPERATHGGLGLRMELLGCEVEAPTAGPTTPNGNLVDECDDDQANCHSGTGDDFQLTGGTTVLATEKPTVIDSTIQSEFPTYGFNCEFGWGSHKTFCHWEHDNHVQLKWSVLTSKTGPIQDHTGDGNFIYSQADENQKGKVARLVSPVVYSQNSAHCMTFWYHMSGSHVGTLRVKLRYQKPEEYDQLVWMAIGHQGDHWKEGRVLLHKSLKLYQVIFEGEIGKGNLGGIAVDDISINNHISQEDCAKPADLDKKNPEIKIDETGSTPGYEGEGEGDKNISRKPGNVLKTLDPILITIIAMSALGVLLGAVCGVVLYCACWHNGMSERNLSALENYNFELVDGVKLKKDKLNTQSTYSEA

The source made the active and inactive calls. No cut-off for these calls is given here. *1 amine or outer side, *2 acyl side, *3 side chain or, on linkers, in order; H or OH if unused. Where a SMILES comes first, the peptide text is derived from it. Side-chain parts run from the residue outwards. [ ]: non-standard residue; d: D form. The star is where a group is joined. ξ: configuration not given here. Biotin = O=C1N[C@H]2[C@H](CS[C@H]2CCCCC(=O)*)N1; Oic(3aξ,7aξ) = O=C(O)[C@@H]1CC2CCCCC2N1; X1 = O=C([C@H](CCCS)N[*:1])[*:2]; hArg = N=C(N)NCCCC[C@H](N)C(=O)O; hCys = N[C@@H](CCS)C(=O)O; X2 = N[C@@H](CCCS)C(=O)*; Aun = NCCCCCCCCCCC(=O)O; Dab = NCC[C@H](N)C(=O)O; Dap = NC[C@H](N)C(=O)O; X3 = CSC[C@H](N)C(=O)*; ξK = NCCCCC(N)C(=O)O; Mpa = O=C(O)CCS

VEGA-NRP1, sequence (P15692 whole entry): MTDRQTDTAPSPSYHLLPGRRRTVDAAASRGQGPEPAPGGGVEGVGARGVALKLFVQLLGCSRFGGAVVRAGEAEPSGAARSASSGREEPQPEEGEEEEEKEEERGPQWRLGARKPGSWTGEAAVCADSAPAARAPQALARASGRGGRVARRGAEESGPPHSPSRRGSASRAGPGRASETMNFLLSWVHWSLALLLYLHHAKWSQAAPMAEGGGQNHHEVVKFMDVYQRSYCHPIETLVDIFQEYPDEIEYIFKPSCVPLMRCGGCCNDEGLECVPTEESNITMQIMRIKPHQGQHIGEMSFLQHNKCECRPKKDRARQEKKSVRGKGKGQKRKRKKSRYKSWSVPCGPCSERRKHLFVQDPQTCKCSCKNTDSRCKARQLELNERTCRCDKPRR
VEGA-NRP1, sequence (O14786 whole entry): as the sequence (O14786 whole entry) above
VEGA-NRP1 (Homo sapiens), sequence (O14786 22-923 partner limits assumed): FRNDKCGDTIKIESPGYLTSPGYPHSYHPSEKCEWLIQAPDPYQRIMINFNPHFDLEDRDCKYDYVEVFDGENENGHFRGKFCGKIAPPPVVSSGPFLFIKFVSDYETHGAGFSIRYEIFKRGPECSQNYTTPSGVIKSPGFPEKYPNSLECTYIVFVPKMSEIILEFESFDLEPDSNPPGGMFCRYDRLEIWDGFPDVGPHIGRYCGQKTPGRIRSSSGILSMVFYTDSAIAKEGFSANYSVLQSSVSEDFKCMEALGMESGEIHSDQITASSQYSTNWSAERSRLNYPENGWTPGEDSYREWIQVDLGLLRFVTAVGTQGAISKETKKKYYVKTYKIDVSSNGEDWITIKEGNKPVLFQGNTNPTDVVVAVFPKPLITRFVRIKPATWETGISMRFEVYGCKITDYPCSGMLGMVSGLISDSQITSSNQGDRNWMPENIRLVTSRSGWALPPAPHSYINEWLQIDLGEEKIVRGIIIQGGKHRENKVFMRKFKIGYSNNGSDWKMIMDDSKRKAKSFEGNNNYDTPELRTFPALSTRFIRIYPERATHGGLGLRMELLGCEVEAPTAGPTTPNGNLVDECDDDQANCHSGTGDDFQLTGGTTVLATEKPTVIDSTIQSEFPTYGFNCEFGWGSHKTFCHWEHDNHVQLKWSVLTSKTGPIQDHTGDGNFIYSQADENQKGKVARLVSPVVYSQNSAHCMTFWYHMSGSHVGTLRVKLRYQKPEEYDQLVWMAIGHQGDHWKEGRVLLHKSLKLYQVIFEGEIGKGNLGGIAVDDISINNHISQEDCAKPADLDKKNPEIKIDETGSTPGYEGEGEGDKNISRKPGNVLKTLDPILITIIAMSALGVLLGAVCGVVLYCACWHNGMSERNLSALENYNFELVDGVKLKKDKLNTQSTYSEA
VEGA-NRP1 (Homo sapiens), sequence (P15692 whole entry): as the sequence (P15692 whole entry) above

In the case of `N=C(N)NCCCC[C@H](NC(=O)[C@@H](N)CCCS)C(=O)NCCCC[C@H](N)C(=O)N[C@@H](CCN)C(=O)N1C2CCCCC2C[C@H]1C(=O)N[C@@H](CCCNC(=N)N)C(=O)O` (stereo partly drawn) (H-K([hArg-X2])[Dab][Oic(3aξ,7aξ)]R-OH), the IC50 at VEGA-NRP1 is 1.33 µM. On the same count and under the same terms, then `N=C(N)NCCCC[C@H](N)C(=O)NCCCC[C@H](NC(=O)[C@@H](N)CCCS)C(=O)N[C@@H](CCN)C(=O)N1C2CCCCC2C[C@H]1C(=O)N[C@@H](CCCNC(=N)N)C(=O)O` (stereo partly drawn) (H-[X1]K(hArg)[Dab][Oic(3aξ,7aξ)]R-OH), with 0.89 µM; and `CSC[C@H](N)C(=O)N[C@@H](CCCCNC(=O)[C@@H](N)CCCCNC(=N)N)C(=O)N[C@@H](CCN)C(=O)N1C2CCCCC2C[C@H]1C(=O)N[C@@H](CCCNC(=N)N)C(=O)O` (stereo partly drawn) (H-C(Me)K(hArg)[Dab][Oic(3aξ,7aξ)]R-OH), with 2.48 µM. In turn, `C[C@@H](O)[C@H](NC(=O)[C@H](CCCNC(=N)N)NC(=O)[C@@H](N)CCC(=O)O)C(=O)N[C@@H](CS)C(=O)N[C@@H](CCCNC(=N)N)C(=O)N[C@@H](CS)C(=O)N[C@@H](CC(=O)O)C(=O)N[C@@H](CCCCN)C(=O)N1CCC[C@H]1C(=O)N[C@@H](CCCNC(=N)N)C(=O)N[C@@H](CCCNC(=N)N)C(=O)O` (H-ERTCRCDKPRR-OH) came in with an inhibition on VEGA-NRP1 (Homo sapiens) of 96%. On to `CSC[C@H](N)C(=O)N[C@@H](CCCCNC(=N)N)C(=O)NCCCC[C@H](N)C(=O)N[C@@H](CCN)C(=O)N1C2CCCCC2C[C@H]1C(=O)N[C@@H](CCCNC(=N)N)C(=O)O` (stereo partly drawn) (H-K([hArg-X3])[Dab][Oic(3aξ,7aξ)]R-OH), for which, on VEGA-NRP1, the concentration for half-maximal inhibition (IC50) is 2.82 µM. On to `N=C(N)NCCCC[C@H](NC(=O)CCS)C(=O)NCCCC[C@H](N)C(=O)N[C@@H](CCN)C(=O)N1C2CCCCC2C[C@H]1C(=O)N[C@@H](CCCNC(=N)N)C(=O)O` (stereo partly drawn) (H-K([hArg-Mpa])[Dab][Oic(3aξ,7aξ)]R-OH), for which the IC50 on VEGA-NRP1 is 2.17 µM. Consider `N=C(N)NCCCC[C@H](N)C(=O)NCCCC[C@H](NC(=O)[C@@H](N)CCS)C(=O)N[C@@H](CCN)C(=O)N1C2CCCCC2C[C@H]1C(=O)N[C@@H](CCCNC(=N)N)C(=O)O` (stereo partly drawn) (H-[hCys]K(hArg)[Dab][Oic(3aξ,7aξ)]R-OH), for which, on VEGA-NRP1, the IC50 is 0.7 µM. Still for that read-out and setting: as for `N=C(N)NCCCC[C@H](N)C(=O)NCCCC[C@H](NC(=O)[C@@H](N)CN)C(=O)N[C@@H](CCN)C(=O)N1C2CCCCC2C[C@H]1C(=O)N[C@@H](CCCNC(=N)N)C(=O)O` (stereo partly drawn) (H-[Dap]K(hArg)[Dab][Oic(3aξ,7aξ)]R-OH), the figure is 0.44 µM.

For the compound `N=C(N)NCCCC[C@H](NC(=O)[C@@H](N)CCS)C(=O)NCCCC[C@H](N)C(=O)N[C@@H](CCN)C(=O)N1C2CCCCC2C[C@H]1C(=O)N[C@@H](CCCNC(=N)N)C(=O)O` (stereo partly drawn) (H-K([hArg-hCys])[Dab][Oic(3aξ,7aξ)]R-OH), the half-inhibitory concentration (IC50) on VEGA-NRP1 came out at 0.63 µM. As to `N=C(N)NCCCC[C@H](NC(=O)[C@@H](N)CO)C(=O)NCCCC[C@H](N)C(=O)N[C@@H](CCN)C(=O)N1C2CCCCC2C[C@H]1C(=O)N[C@@H](CCCNC(=N)N)C(=O)O` (stereo partly drawn) (HELM PEPTIDE1{K.[Dab].[O=C([C@@H]1CC2CCCCC2N1[*:1])[*:2]].R}|PEPTIDE2{S.[N=C(N)NCCCC[C@H](N[*:1])C(=O)[*:2]]}$PEPTIDE1,PEPTIDE2,1:R3-2:R2$$$V2.0), at VEGA-NRP1, the IC50 is 0.81 µM. For H-CDKPRR-OH, on VEGA-NRP1 (Homo sapiens), the inhibition amounted to 96%. For `CC[C@H](N)C(=O)N[C@@H](CCCCNC(=N)N)C(=O)NCCCC[C@H](N)C(=O)N[C@@H](CCN)C(=O)N1C2CCCCC2C[C@H]1C(=O)N[C@@H](CCCNC(=N)N)C(=O)O` (stereo partly drawn) (HELM PEPTIDE1{K.[Dab].[O=C([C@@H]1CC2CCCCC2N1[*:1])[*:2]].R}|PEPTIDE2{[Abu].[N=C(N)NCCCC[C@H](N[*:1])C(=O)[*:2]]}$PEPTIDE1,PEPTIDE2,1:R3-2:R2$$$V2.0), the IC50 at VEGA-NRP1 was 2.48 µM.

As to `CC[C@H](N)C(=O)N[C@@H](CCCCNC(=O)[C@@H](N)CCCCNC(=N)N)C(=O)N[C@@H](CCN)C(=O)N1C2CCCCC2C[C@H]1C(=O)N[C@@H](CCCNC(=N)N)C(=O)O` (stereo partly drawn) (HELM PEPTIDE1{[Abu].K.[Dab].[O=C([C@@H]1CC2CCCCC2N1[*:1])[*:2]].R}|PEPTIDE2{[N=C(N)NCCCC[C@H](N)C(=O)[*:2]]}$PEPTIDE1,PEPTIDE2,2:R3-1:R2$$$V2.0), in [1], the half-life is 2 h. For the same compound, the IC50 at VEGA-NRP1 was 2.41 µM. Turning to `N=C(N)NCCCC[C@H](NC(=O)[C@@H](N)CN)C(=O)NCCCC[C@H](N)C(=O)N[C@@H](CCN)C(=O)N1C2CCCCC2C[C@H]1C(=O)N[C@@H](CCCNC(=N)N)C(=O)O` (stereo partly drawn) (H-K([hArg-Dap])[Dab][Oic(3aξ,7aξ)]R-OH), at VEGA-NRP1, the IC50 is 0.33 µM. Regarding `N=C(N)NCCCC[C@H](NC(=O)[C@@H](N)CS)C(=O)NCCCCC(NC(=O)CCCCCCCCCCNC(=O)CCCC[C@@H]1SC[C@@H]2NC(=O)N[C@@H]21)C(=O)N[C@@H](CCN)C(=O)N1C2CCCCC2C[C@H]1C(=O)N[C@@H](CCCNC(=N)N)C(=O)O` (stereo partly drawn) ({Biotin-Aun}-[ξK]([hArg-Cys])[Dab][Oic(3aξ,7aξ)]R-OH), the result (in the data set with MDA-MB-231 [2]; with Cell membrane [3]; with MDA-MB-231 [4]; in the data set with Cell membrane [6]; in the data set with Cell membrane [8]; in data set [9]) was Active. Further, the result (in data set [5]; in the data set on MDA-MB-231 [7]) was inactive.

For the compound `N=C(N)NCCCC[C@H](N)C(=O)NCCCC[C@H](NC(=O)[C@@H](N)CO)C(=O)N[C@@H](CCN)C(=O)N1C2CCCCC2C[C@H]1C(=O)N[C@@H](CCCNC(=N)N)C(=O)O` (stereo partly drawn) (HELM PEPTIDE1{S.K.[Dab].[O=C([C@@H]1CC2CCCCC2N1[*:1])[*:2]].R}|PEPTIDE2{[N=C(N)NCCCC[C@H](N)C(=O)[*:2]]}$PEPTIDE1,PEPTIDE2,2:R3-1:R2$$$V2.0), at VEGA-NRP1, the IC50 is 1.54 µM. As for `N=C(N)NCCCC[C@H](NC(=O)CCCCCCCCCCNC(=O)CCCC[C@@H]1SC[C@@H]2NC(=O)N[C@@H]21)C(=O)NCCCC[C@H](NC(=O)[C@@H](N)CS)C(=O)N[C@@H](CCN)C(=O)N1C2CCCCC2C[C@H]1C(=O)N[C@@H](CCCNC(=N)N)C(=O)O` (stereo partly drawn) (H-CK([hArg-Aun-Biotin])[Dab][Oic(3aξ,7aξ)]R-OH), the result (in the data set on MDA-MB-231 [2]; with Cell membrane [3]; with MDA-MB-231 [4]; with Cell membrane [6]; with Cell membrane [8]; in data set [9]) was Active. Moreover, the outcome (in [5]; with MDA-MB-231 [7]) was inactive. In the case of `N=C(N)NCCCC[C@H](N)C(=O)NCCCC[C@H](NC(=O)CCS)C(=O)N[C@@H](CCN)C(=O)N1C2CCCCC2C[C@H]1C(=O)N[C@@H](CCCNC(=N)N)C(=O)O` (stereo partly drawn) ([Mpa]K(hArg)[Dab][Oic(3aξ,7aξ)]R-OH), the IC50 on VEGA-NRP1 was 1.13 µM.

The values above are taken from ChEMBL document CHEMBL5365540, “Structure-activity relationship studies and biological properties evaluation of peptidic NRP-1 ligands: Investigation of N-terminal cysteine importance” (Bioorg Med Chem, 2023).
